# Assay results taken from ChEMBL document CHEMBL3600349 (Bioorg Med Chem Lett, 2015).
# Tests used:
# [1] = biological target: hERG (KCNH2) (Homo sapiens, UniProt Q12809); test: Inhibition of human ERG at 10 uM by patch clamp assay
# [2] = Half life in rat liver microsomes; format: ADME
# [3] = Intrinsic clearance in human hepatocytes assessed per 10^6 cells; format: ADME, cell-based, Hepatocyte; conditions: read-out: CLH
# [4] = Lipophilicity, log P of the compound by HPLC analysis; format: physicochemical
# [5] = system: U-937; test: Toxicity in human U937 cells assessed as first effect concentration for phospholipidosis by nile red uptake assay; format: cell-based
# [6] = biological target: T1, Melanin-concentrating hormone receptor 1 (Homo sapiens, UniProt Q99705); test: Displacement of [125I]-MCH from human MCH-R1 expressed in CHO/Galpha16 cells after 60 mins by scintillation counting; format: cell-based
# T1 sequence (Q99705 whole entry): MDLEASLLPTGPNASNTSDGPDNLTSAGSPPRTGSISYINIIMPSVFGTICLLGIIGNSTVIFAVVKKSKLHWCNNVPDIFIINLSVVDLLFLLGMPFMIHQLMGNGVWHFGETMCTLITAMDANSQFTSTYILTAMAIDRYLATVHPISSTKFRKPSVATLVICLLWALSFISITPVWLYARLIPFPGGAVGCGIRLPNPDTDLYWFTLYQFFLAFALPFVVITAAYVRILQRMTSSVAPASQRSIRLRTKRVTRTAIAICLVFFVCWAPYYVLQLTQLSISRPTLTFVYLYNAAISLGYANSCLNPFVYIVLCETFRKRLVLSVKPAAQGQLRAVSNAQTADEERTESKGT
# [7] = species: Homo sapiens; test: Selectivity ratio, ratio of muscarinic M1 receptor (unknown origin) to human MCH-R1
# [8] = species: Homo sapiens; test: Selectivity ratio, ratio of 5HT2A receptor (unknown origin) to human MCH-R1
# [9] = system: U-937; test: Toxicity in human U937 cells assessed as phospholipidosis at 100 uM by nile red uptake assay; format: cell-based; conditions: u-937, 100 µM
# [10] = biological target: Cytochrome P450 2C9 (Homo sapiens, UniProt P11712); test: Inhibition of CYP2C9 (unknown origin); format: ADME
# [11] = Oral bioavailability in cynomolgus monkey; format: ADME, organism-based, Macaca fascicularis; conditions: in vivo
# [12] = Plasma protein binding in cynomolgus monkey; format: ADME, cell-free, Macaca fascicularis; conditions: read-out: PPB (converted)
# [13] = Mean residence time in iv dosed rat; format: ADME, organism-based; conditions: in vivo
# [14] = biological target: Melanin-concentrating hormone receptor 1 (Rattus norvegicus, UniProt P97639); test: Binding affinity to rat MCH-R1
# Chain of Melanin-concentrating hormone receptor 1 (Rattus norvegicus, UniProt P97639) (P97639 whole entry): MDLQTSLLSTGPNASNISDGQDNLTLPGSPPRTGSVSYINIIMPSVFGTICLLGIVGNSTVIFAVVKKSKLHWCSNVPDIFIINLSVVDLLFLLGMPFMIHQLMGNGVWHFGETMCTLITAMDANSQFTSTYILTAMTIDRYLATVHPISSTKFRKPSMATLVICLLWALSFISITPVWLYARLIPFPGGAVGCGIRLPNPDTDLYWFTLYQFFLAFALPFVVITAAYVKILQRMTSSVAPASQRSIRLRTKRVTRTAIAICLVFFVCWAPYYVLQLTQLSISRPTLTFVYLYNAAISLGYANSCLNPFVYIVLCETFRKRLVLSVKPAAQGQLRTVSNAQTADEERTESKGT
# [15] = Total mean residence time in iv dosed rat; format: ADME, organism-based; conditions: in vivo
# [16] = system: U-937; test: Cytotoxicity against human U937 cells; format: cell-based
# [17] = biological target: T2, Nuclear receptor subfamily 1 group I member 2 (Homo sapiens, UniProt O75469); test: Activation of PXR (unknown origin) at 10 uM relative to rifampicin; format: ADME
# T2 sequence (O75469 whole entry): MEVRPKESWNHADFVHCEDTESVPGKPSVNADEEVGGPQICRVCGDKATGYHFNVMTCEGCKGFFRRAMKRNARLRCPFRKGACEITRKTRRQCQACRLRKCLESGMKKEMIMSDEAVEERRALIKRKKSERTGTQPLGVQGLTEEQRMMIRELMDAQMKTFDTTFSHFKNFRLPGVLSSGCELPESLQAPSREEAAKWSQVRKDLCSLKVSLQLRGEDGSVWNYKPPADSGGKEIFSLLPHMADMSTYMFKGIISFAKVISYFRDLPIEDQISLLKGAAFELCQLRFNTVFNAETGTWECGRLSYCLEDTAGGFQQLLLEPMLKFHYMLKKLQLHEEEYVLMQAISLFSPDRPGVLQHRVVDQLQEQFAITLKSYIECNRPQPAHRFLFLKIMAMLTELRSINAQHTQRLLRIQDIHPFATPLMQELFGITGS
# [18] = Distribution coefficient, log D of the compound; format: physicochemical; conditions: octanol/water
# [19] = Efflux ratio in human Caco2 cells at 10 uM; format: ADME, cell-based; conditions: Caco-2
# [20] = Metabolic stability in cynomolgus monkey hepatocytes relative to hepatic blood flow; format: ADME, cell-based, Macaca fascicularis, Hepatocyte; conditions: read-out: Stability
# [21] = system: Cynomolgus monkey; test: Cardiotoxicity in conscious cynomolgus monkey assessed as left ventricular pressure at 3 to 30 mg/kg, po; format: toxicity, organism-based, Macaca fascicularis, Heart left ventricle; conditions: in vivo
# [22] = Volume of distribution at steady state in cynomolgus monkey; format: ADME, organism-based, Macaca fascicularis; conditions: in vivo, read-out: Vdss
# [23] = system: Rattus norvegicus; test: Antiobesity activity in diet-induced obese Wistar rat model assessed as reduction of body weight at 6 mg/kg, po bid after 4 weeks; format: functional; set-up: scale not given: the % may be the effect or the level left
# [24] = Apparent permeability from apical to basolateral side in human Caco2 cells at 10 uM; format: ADME, cell-based; conditions: Caco-2
# [25] = Binding affinity to dog MCH-R1; set-up: species or system Canis lupus familiaris
# [26] = Plasma protein binding in dog; format: ADME, cell-free, Canis lupus familiaris; conditions: read-out: PPB (converted)
# [27] = system: Cynomolgus monkey; test: Cardiotoxicity in conscious cynomolgus monkey assessed as myocardial contraction at 3 to 30 mg/kg, po; format: toxicity, organism-based, Macaca fascicularis, Myocardium; conditions: in vivo
# [28] = biological target: Histamine H3 receptor (Homo sapiens) (UniProt Q9Y5N1); test: Binding affinity to histamine H3 receptor (unknown origin) at 10 uM by radioligand binding assay
# Chain of Histamine H3 receptor (Homo sapiens) (Q9Y5N1 whole entry): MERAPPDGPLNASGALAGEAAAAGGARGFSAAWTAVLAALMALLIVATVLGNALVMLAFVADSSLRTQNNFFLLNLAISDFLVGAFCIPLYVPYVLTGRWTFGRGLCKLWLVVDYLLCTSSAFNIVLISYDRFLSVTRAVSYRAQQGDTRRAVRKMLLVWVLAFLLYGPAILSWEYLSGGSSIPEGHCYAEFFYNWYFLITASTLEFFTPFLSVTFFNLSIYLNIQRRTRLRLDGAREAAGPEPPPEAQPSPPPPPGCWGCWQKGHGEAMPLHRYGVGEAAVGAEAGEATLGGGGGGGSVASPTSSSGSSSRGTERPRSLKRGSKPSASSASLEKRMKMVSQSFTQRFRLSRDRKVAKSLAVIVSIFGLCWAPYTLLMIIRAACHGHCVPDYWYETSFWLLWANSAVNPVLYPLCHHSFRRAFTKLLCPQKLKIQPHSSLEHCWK
# [29] = biological target: Cytochrome P450 2C19 (Homo sapiens, UniProt P33261); test: Inhibition of CYP2C19 (unknown origin); format: ADME
# Chain of Cytochrome P450 2C19 (P33261 whole entry): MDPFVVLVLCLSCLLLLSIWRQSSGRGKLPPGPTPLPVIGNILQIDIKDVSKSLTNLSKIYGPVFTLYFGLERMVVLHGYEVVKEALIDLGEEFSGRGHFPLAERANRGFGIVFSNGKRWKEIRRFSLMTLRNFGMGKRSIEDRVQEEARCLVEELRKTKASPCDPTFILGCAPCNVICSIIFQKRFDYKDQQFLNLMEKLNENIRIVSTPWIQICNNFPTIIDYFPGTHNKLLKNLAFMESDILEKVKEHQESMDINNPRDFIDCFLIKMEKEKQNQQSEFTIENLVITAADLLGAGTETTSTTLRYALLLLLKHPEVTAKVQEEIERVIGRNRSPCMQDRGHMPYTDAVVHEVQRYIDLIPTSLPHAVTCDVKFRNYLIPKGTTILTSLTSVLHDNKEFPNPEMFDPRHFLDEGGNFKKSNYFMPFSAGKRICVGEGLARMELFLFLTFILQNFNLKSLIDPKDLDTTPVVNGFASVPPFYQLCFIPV
# [30] = Plasma protein binding in human; format: ADME, cell-free; conditions: read-out: PPB (converted)
# [31] = system: Rattus norvegicus; test: Toxicity in diet-induced obese Wistar rat model at 6 to 10 mg/kg, po bid after 4 weeks; format: organism-based; conditions: in vivo, 672 h
# [32] = Volume of distribution at steady state in dog; format: ADME, organism-based, Canis lupus familiaris; conditions: in vivo, read-out: Vdss
# [33] = species: Canis familiaris; test: Clearance in dog relative to hepatic blood flow; format: ADME, organism-based, Canis lupus familiaris, Liver; conditions: in vivo
# [34] = Dissociation constant, pKa of the compound; format: physicochemical
# [35] = Oral bioavailability in dog; format: ADME, organism-based, Canis lupus familiaris; conditions: in vivo
# [36] = Metabolic stability in human hepatocytes relative to hepatic blood flow; format: ADME, cell-based, Hepatocyte; conditions: read-out: Stability
# [37] = system: Cynomolgus monkey; test: Clearance in cynomolgus monkey relative to hepatic blood flow; format: ADME, organism-based, Macaca fascicularis, Liver; conditions: in vivo
# [38] = system: Rattus norvegicus; test: Antiobesity activity in diet-induced obese Wistar rat model assessed as reduction of body weight at 10 mg/kg, po bid after 4 weeks; format: functional; set-up: scale not given: the % may be the effect or the level left
# [39] = system: Cynomolgus monkey; test: Cardiotoxicity in conscious cynomolgus monkey assessed as systolic and diastolic blood pressure at 3 to 30 mg/kg, po; format: toxicity, organism-based, Macaca fascicularis; conditions: in vivo
# [40] = system: Cynomolgus monkey; test: Cardiotoxicity in conscious cynomolgus monkey assessed as decrease in heart rate at 30 mg/kg, po; format: toxicity, organism-based, Macaca fascicularis; conditions: in vivo
# [41] = Aqueous solubility of the compound at pH 6.8; format: physicochemical
# [42] = Aqueous solubility of the compound at pH 4.5; format: physicochemical
# [43] = biological target: Voltage-gated inwardly rectifying potassium channel KCNH2 (Homo sapiens, UniProt Q12809); test: Inhibition of human ERG by patch clamp assay
# Chain of Voltage-gated inwardly rectifying potassium channel KCNH2 (Q12809 whole entry): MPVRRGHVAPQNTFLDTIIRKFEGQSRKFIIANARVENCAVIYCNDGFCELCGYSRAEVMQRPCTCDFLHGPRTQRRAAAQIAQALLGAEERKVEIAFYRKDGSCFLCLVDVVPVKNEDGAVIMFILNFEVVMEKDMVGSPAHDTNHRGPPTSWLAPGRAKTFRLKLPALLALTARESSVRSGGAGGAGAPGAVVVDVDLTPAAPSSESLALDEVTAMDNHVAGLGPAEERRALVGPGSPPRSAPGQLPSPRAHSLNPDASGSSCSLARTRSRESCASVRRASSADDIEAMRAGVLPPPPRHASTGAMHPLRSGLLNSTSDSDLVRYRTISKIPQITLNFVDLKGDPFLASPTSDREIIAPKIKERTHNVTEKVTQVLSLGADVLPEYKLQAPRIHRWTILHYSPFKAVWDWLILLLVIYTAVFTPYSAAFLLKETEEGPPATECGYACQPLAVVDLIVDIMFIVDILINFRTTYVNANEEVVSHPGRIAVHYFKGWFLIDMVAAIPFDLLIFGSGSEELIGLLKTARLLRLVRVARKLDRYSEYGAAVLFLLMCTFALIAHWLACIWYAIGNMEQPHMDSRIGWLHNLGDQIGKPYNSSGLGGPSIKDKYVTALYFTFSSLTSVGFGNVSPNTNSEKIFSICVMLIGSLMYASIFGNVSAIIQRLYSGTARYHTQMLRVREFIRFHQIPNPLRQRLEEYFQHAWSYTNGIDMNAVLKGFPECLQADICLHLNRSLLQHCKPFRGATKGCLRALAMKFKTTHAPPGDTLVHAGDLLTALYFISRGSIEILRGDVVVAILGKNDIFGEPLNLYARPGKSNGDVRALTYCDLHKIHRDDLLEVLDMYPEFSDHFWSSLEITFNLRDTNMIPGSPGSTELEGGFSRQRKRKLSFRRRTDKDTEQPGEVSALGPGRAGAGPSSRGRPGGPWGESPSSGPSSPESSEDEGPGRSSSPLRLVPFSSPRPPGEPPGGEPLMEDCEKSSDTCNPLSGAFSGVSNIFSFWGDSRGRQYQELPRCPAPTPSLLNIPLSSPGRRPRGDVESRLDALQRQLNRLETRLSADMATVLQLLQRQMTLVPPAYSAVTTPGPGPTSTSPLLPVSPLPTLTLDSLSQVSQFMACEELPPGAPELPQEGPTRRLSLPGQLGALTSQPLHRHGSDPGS
# [44] = Metabolic stability in rat hepatocytes relative to hepatic blood flow; format: ADME, cell-based, Hepatocyte; conditions: read-out: Stability
# [45] = biological target: Cytochrome P450 3A4 (Homo sapiens, UniProt P08684); test: Inhibition of CYP3A4 (unknown origin); format: ADME
# Chain of Cytochrome P450 3A4 (P08684 whole entry): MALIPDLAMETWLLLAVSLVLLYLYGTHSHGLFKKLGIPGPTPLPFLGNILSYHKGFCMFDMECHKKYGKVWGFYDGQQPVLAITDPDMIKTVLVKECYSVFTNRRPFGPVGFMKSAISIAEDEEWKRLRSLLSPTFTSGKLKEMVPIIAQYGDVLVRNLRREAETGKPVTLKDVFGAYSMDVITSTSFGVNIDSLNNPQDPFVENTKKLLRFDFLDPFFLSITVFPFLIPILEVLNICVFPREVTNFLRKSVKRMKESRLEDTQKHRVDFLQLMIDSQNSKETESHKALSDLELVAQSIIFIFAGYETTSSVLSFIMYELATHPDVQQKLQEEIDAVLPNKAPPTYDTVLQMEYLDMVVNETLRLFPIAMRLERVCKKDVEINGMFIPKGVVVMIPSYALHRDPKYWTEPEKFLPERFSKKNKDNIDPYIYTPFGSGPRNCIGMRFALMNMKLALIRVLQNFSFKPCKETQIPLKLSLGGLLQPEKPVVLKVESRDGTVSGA
# [46] = Aqueous solubility of the compound at pH 7.4; format: physicochemical
# [47] = biological target: T1, Melanin-concentrating hormone receptor 1; test: Binding affinity to human MCH-R1 expressed in CHO/Galpha16 cells; format: cell-based
# [48] = species: Rattus norvegicus; test: Clearance in rat relative to hepatic blood flow; format: ADME, organism-based, Liver; conditions: in vivo
# [49] = system: Salmonella typhimurium; test: Genotoxicity in Salmonella typhimurium by Ames test; format: toxicity, organism-based; conditions: salmonella enterica subsp. enterica serovar typhimurium
# [50] = Total mean residence time in iv dosed cynomolgus monkey; format: ADME, organism-based, Macaca fascicularis; conditions: in vivo
# [51] = Oral bioavailability in rat; format: ADME, organism-based; conditions: in vivo
# [52] = biological target: CYP3A4 (Homo sapiens, UniProt P08684); test: Time dependent inhibition of CYP3A4 (unknown origin) at 25 uM after 30 mins; format: ADME
# Chain of CYP3A4 (P08684 whole entry): as above
# [53] = Mean residence time in iv dosed dog; format: ADME, organism-based, Canis lupus familiaris; conditions: in vivo
# [54] = biological target: T3, Cytochrome P450 2C8 (Homo sapiens, UniProt P10632); test: Inhibition of CYP2C8 (unknown origin); format: ADME
# T3 sequence (P10632 whole entry): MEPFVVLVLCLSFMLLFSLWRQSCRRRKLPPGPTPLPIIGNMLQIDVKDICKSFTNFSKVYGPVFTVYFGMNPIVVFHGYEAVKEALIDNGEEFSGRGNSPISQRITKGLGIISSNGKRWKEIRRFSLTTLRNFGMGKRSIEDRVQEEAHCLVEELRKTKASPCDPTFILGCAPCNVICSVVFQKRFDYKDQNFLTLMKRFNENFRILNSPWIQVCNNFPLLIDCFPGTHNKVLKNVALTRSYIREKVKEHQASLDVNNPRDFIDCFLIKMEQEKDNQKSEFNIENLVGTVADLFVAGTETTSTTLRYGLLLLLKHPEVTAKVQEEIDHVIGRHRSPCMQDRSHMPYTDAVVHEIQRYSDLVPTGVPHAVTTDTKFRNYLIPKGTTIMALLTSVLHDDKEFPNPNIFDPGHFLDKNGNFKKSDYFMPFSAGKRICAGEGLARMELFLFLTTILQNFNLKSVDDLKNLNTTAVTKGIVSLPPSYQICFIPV
# [55] = Volume of distribution at steady state in rat; format: ADME, organism-based; conditions: in vivo, read-out: Vdss
# [56] = Aqueous solubility of the compound at pH 2.2; format: physicochemical
# [57] = Mean residence time in iv dosed cynomolgus monkey; format: ADME, organism-based, Macaca fascicularis; conditions: in vivo
# [58] = Total mean residence time in iv dosed dog; format: ADME, organism-based, Canis lupus familiaris; conditions: in vivo
# [59] = Plasma protein binding in rat; format: ADME, cell-free; conditions: read-out: PPB (converted)
# [60] = biological target: Cytochrome P450 2D6 (Homo sapiens, UniProt P10635); test: Inhibition of CYP2D6 (unknown origin); format: ADME
# Chain of Cytochrome P450 2D6 (P10635 whole entry): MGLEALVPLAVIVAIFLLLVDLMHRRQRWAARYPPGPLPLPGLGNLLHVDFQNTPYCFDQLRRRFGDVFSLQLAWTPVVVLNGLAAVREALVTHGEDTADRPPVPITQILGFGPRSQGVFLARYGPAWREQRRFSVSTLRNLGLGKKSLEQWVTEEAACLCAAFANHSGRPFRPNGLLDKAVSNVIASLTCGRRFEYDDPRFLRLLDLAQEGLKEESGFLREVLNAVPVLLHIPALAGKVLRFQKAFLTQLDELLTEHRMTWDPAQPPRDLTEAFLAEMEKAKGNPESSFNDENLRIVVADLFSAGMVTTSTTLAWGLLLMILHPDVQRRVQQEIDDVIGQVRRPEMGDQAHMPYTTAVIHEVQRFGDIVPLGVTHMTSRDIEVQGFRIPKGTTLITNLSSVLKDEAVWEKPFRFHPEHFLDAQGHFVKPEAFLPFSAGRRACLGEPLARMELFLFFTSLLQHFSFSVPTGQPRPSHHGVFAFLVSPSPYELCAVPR
# [61] = system: Rattus norvegicus; test: Antiobesity activity in diet-induced obese Wistar rat model assessed as reduction of body weight at 3 mg/kg, po bid after 4 weeks; format: functional; set-up: scale not given: the % may be the effect or the level left
# Chain of hERG (KCNH2) (Q12809 whole entry): as the sequence (Q12809 whole entry) above
compound,measurement,setting,value
Cc1cc(CN(C)C)ccc1C(=O)Cn1ncc(OCc2ccccc2)cc1=O,inhibition at 10 µM,[1],88%
same,half-life,[2],15 min
same,hepatocyte CLint,[3],4.8 µL/min/1e6 cells
same,logP,[4],3.8
same,Activity,[5],50 µM
same,IC50,[6],0.0087 µM
Cc1cc(CN(C)C)ccc1C(=O)Cn1ccc(OCc2ccccc2)cc1=O,inhibition at 10 µM,[1],67%
same,half-life,[2],24 min
same,hepatocyte CLint,[3],4 µL/min/1e6 cells
same,logP,[4],3.3
same,Activity,[5],50 µM
same,Ratio,[7],> 200
same,Ratio,[8],> 200
COc1ccc(COc2cnn(CC(=O)c3ccc(CN(C)C)cc3C)c(=O)c2)nc1,Activity,[9],Non-toxic
same,IC50,[10],> 50 µM
same,bioavailability,[11],44%
same,fraction unbound,[12],0.1
same,MRT,[13],30 min
same,IC50,[14],0.018 µM
same,MRT,[15],204 min
same,IC50,[16],506 µM
same,Activity,[17],17%
same,logD,[18],1.4
same,efflux ratio at 10 µM,[19],1
same,hepatic extraction ratio,[20],0.43
same,Activity,[21],Non-toxic
same,Vd,[22],1.3 L/kg
same,Activity,[23],10.1%
same,Papp A→B at 10 µM,[24],52 ×10⁻⁶ cm/s
same,IC50,[25],0.023 µM
same,fraction unbound,[26],0.2
same,Activity,[27],Non-toxic
same,Activity,[28],78%
same,IC50,[29],> 50 µM
same,fraction unbound,[30],0.07
same,inhibition at 10 µM,[1],17%
same,Activity,[31],Non-toxic
same,Vd,[32],2.9 L/kg
same,half-life,[2],> 45 min
same,CL,[33],229%
same,pKa,[34],2.8
same,bioavailability,[35],1.4%
same,hepatocyte CLint,[3],3.3 µL/min/1e6 cells
same,hepatic extraction ratio,[36],0.26
same,logP,[4],2.3
same,CL,[37],40%
same,Activity,[5],200 µM
same,Activity,[38],10.2%
same,Activity,[39],Non-toxic
same,Activity,[40],Non-toxic
same,solubility,[41],> 1000 µg/mL
same,solubility,[42],> 1000 µg/mL
same,IC50,[43],16 µM
same,hepatic extraction ratio,[44],0.78
same,IC50,[45],18 µM
same,solubility,[46],> 1000 µg/mL
same,Ki,[47],0.014 µM
same,CL,[48],164%
same,Activity,[49],Non-toxic
same,MRT,[50],132 min
same,IC50,[6],0.022 µM
same,bioavailability,[51],53%
same,"inhibition at 0.5 h, 25 µM",[52],85%
same,MRT,[53],42 min
same,IC50,[54],> 50 µM
same,Vd,[55],3.3 L/kg
same,solubility,[56],> 1000 µg/mL
same,MRT,[57],72 min
same,MRT,[58],174 min
same,fraction unbound,[59],0.1
same,IC50,[60],> 50 µM
same,Activity,[61],7.7%
